Results reported in patent publication US8822523B2, “Carboxamide microbiocides” (Syngenta Participations AG, priority 2011, dated 2014).

Experiments:
[1] = test system: Puccinia recondita; assay: Puccinia recondita / wheat / leaf disc curative (brown rust); assay type: in vivo; conditions: foliar, 24 h, 200 ppm active ingredient applied one day after inoculation, wheat leaf segments, assessed 8 dpi, read-out: fungal growth inhibition
Protocol: Puccinia recondita/Wheat/Leaf Disc Curative (Brown Rust)
Wheat leaf segments were placed on agar in multiwell plates (24-well format). The leaf disks were then inoculated with a spore suspension of the fungus One day after inoculation the test solution was applied (200 ppm active ingredient). After appropriate incubation the activity of a compound was assessed 8 dpi (days after inoculation) as curative fungicidal activity. The activity of a compound was expressed as fungal growth inhibition (0=no growth inhibition, ratings of 80% to 99% mean good to very good inhibition, 100%=complete inhibition).

[2] = test system: Mycosphaerella arachidis (Cercospora arachidicola); assay: Mycosphaerella arachidis (Cercospora arachidicola) / liquid culture (early leaf spot); assay type: cell-based; conditions: 200 ppm active ingredient, PDB potato dextrose broth, 24° C., photometrically after 6-7 days, read-out: fungal growth inhibition
Protocol: Mycosphaerella arachidis (Cercospora arachidicola)/Liquid Culture (Early Leaf Spot)
Conidia of the fungus from cryogenic storage were directly mixed into nutrient broth (PDB potato dextrose broth). After placing a (DMSO) solution of the test compounds (200 ppm active ingredient) into a microtiter plate (96-well format) the nutrient broth containing the fungal spores was added. The test plates were incubated at 24° C. and the inhibition of growth was measured photometrically after 6-7 days. The activity of a compound was expressed as fungal growth inhibition (0=no growth inhibition, ratings of 80% to 99% mean good to very good inhibition, 100%=complete inhibition).

[3] = test system: Puccinia recondita; assay: Puccinia recondita / wheat / leaf disc preventative (brown rust); assay type: in vivo; conditions: foliar, 200 ppm active ingredient, wheat leaf segments, preventive, assessed 8 dpi, read-out: fungal growth inhibition
Protocol: Puccinia recondita/Wheat/Leaf Disc Preventative (Brown Rust)
Wheat leaf segments were placed on agar in multiwell plates (24-well format) and sprayed with test solutions (200 ppm active ingredient). After drying, the leaf disks were inoculated with a spore suspension of the fungus. After appropriate incubation the activity of a compound was assessed 8 dpi (days after inoculation) as preventive fungicidal activity. The activity of a compound was expressed as fungal growth inhibition (0=no growth inhibition, ratings of 80% to 99% mean good to very good inhibition, 100%=complete inhibition).

[4] = test system: Mycosphaerella graminicola (Septoria tritici); assay: Mycosphaerella graminicola (Septoria tritici) / liquid culture (Septoria blotch); assay type: cell-based; conditions: Zymoseptoria tritici, 96 h; 200 ppm active ingredient, PDB potato dextrose broth, 24° C., photometrically after 4 days; read-out: fungal growth inhibition
Protocol: Mycosphaerella graminicola (Septoria tritici)/Liquid Culture (Septoria blotch)
Conidia of the fungus from cryogenic storage were directly mixed into nutrient broth (PDB potato dextrose broth). After placing a (DMSO) solution of the test compounds (200 ppm active ingredient) into a microtiter plate (96-well format) the nutrient broth containing the fungal spores was added. The test plates were incubated at 24° C. and the inhibition of growth was measured photometrically after 4 days. The activity of a compound was expressed as fungal growth inhibition (0=no growth inhibition, ratings of 80% to 99% mean good to very good inhibition, 100%=complete inhibition).

Measured: inhibition at 200 ppm

Cn1cc(C(=O)NOCC2CCCCc3cc(C#CC(C)(C)C)sc32)c(C(F)F)n1 (stereo not shown) [Compound 2.47, 3-Difluoromethyl-1-methyl-1H-pyrazole-4-carboxylic acid [2-(3,3-dimethylbut-1-ynyl)-5,6,7,8-tetrahydro-4H-cyclohepta[b]thiophen-8-yl]methoxy amide]
≥ 80%: all assays above
